Consider eight molecules from US10125134B2 (Mirati Therapeutics, Inc., priority 2016, dated 2018).

As usually defined, the IC50 is the concentration that inhibits the measured activity by half.

The test system of test [1] is NCI-H358 cells (express KRas G12C), Phospho-ERK. Description: Cellular inhibition of KRas G12C: Phospho-ERK in NCI-H358 cells. The conditions noted are these: Homo sapiens, NCI-H358, 3 h, pERK(Thr202/Tyr204) normalized with GAPDH; NCI-H358 cells; 3 hours; read-out: IC50. Type of test: cell-based. The essentials: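 IC50 derived by 4-parameter fit of GAPDH-normalized pERK(Thr202/Tyr204) signal, as percent of DMSO control. Signal came from in-cell immunodetection with infrared secondaries after 3 h compound exposure of KRas G12C NCI-H358 cells at 0.5% DMSO.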

The next test concerns the target KRas G12C (Homo sapiens, UniProt P01116, C118S/C51S/C80L/G12C). As to the kind of experiment: KRas G12C Modification Assay (LCMS detection of covalent adduct). The test is classed as binding. Particulars: normalized percent of control; tested at 5 μM concentration for 3 hours. In short, it runs like this: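 Cys-light KRas G12C mutant protein incubated with compound in K-Ras assay buffer, reactions quenched at set time points with 25 mM acetic acid and analysed by intact-protein LC/MS on a C-3 column. Deconvoluted mass heights expressed as percent of control (POC) relative to compound-free protein.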

As for `C=CC(=O)N1CCN(c2nc(OC[C@@H]3C[C@@H](OC)CN3C)nc3c2CCN(c2cc(OC)cc4ccccc24)C3)CC1` [Example 356, 1-[4-[2-[[(2S,4R)-4-methoxy-1-methyl-pyrrolidin-2-yl]methoxy]-7-(3-methoxy-1-naphthyl)-6,8-dihydro-5H-pyrido[3,4-d]pyrimidin-4-yl]piperazin-1-yl]prop-2-en-1-one], the IC50 in test [1] was more than 1000 nM. Besides, on KRas G12C, the POC result is “C (“C”>50% POC)”.

Take `C=CC(=O)N1CCN(c2nc(OC[C@@H]3C[C@@H](F)CN3C)nc3c2CCN(c2cc(O)cc4ccccc24)C3)CC1` [Example 357, 1-[4-[2-[[(2S,4R)-4-fluoro-1-methyl-pyrrolidin-2-yl]methoxy]-7-(3-hydroxy-1-naphthyl)-6,8-dihydro-5H-pyrido[3,4-d]pyrimidin-4-yl]piperazin-1-yl]prop-2-en-1-one]: the concentration for half-maximal inhibition (IC50) in test [1] was in the range of 0.1 to 1000 nM. Also, on KRas G12C, the POC result is on record as “A (“A”≤25% POC)”.

For `C#CC[C@H]1CN(c2nc(OC[C@@H]3CCCN3C)nc3c2CCN(c2cccc4ccccc24)C3)CCN1C(=O)C=C` [Example 358, 1-[(2S)-4-[2-[[(2S)-1-methylpyrrolidin-2-yl]methoxy]-7-(1-naphthyl)-6,8-dihydro-5H-pyrido[3,4-d]pyrimidin-4-yl]-2-prop-2-ynyl-piperazin-1-yl]prop-2-en-1-one], the IC50 in test [1] is 0.1 to 1000 nM. Also, the POC entry at KRas G12C was “C (“C”>50% POC)”.

Consider `C=CC(=O)N1CCN(c2nc(OC[C@@H]3CCCN3C)nc3c2CCN(c2cccc4cccc(C)c24)C3)C[C@@H]1CC#N` [Example 359, 2-((S)-1-acryloyl-4-(7-(8-methylnaphthalen-1-yl)-2-(((S)-1-methylpyrrolidin-2-yl)methoxy)-5,6,7,8-tetrahydropyrido[3,4-d]pyrimidin-4-yl)piperazin-2-yl)acetonitrile], for which the IC50 in test [1] was 0.1 to 1000 nM. For the same molecule, at KRas G12C, the POC entry is recorded as “C (“C”>50% POC)”.

With `C=CC(=O)N1CCN(c2nc(OC[C@@H]3CCCN3C)nc3c2CCN(c2cccc4cccc(CC)c24)C3)C[C@@H]1CC#N` [Example 360, 2-[(2S)-4-[7-(8-ethyl-1-naphthyl)-2-[[(2S)-1-methylpyrrolidin-2-yl]methoxy]-6,8-dihydro-5H-pyrido[3,4-d]pyrimidin-4-yl]-1-prop-2-enoyl-piperazin-2-yl]acetonitrile], the IC50 in test [1] lay within 0.1 to 1000 nM. In addition, on KRas G12C, the POC entry is listed as “C (“C”>50% POC)”.

With `C=CC(=O)N1CCN(c2nc(OC[C@@H]3CCN(C)C3)nc3c2CCN(c2cccc4cccc(Cl)c24)C3)C[C@@H]1CC#N` [Example 361, 2-[(2S)-4-[7-(8-chloro-1-naphthyl)-2-[[(3R)-1-methylpyrrolidin-3-yl]methoxy]-6,8-dihydro-5H-pyrido[3,4-d]pyrimidin-4-yl]-1-prop-2-enoyl-piperazin-2-yl]acetonitrile], the IC50 in test [1] fell in the range of 0.1 to 1000 nM. In addition, the POC result at KRas G12C is “C (“C”>50% POC)”.

As for `C=CC(=O)N1CCN(c2nc(OCCN3CCCCC3)nc3c2CCN(c2cccc4cccc(Cl)c24)C3)C[C@@H]1CC#N` [Example 362, 2-[(2S)-4-[7-(8-chloro-1-naphthyl)-2-[2-(1-piperidyl)ethoxy]-6,8-dihydro-5H-pyrido[3,4-d]pyrimidin-4-yl]-1-prop-2-enoyl-piperazin-2-yl]acetonitrile], in test [1], the IC50 is 0.1 to 1000 nM. The POC entry on KRas G12C is listed as “C (“C”>50% POC)”.

In the case of `C=CC(=O)N1CCN(c2nc(OC[C@H]3CN(C)CCO3)nc3c2CCN(c2cccc4cccc(Cl)c24)C3)C[C@@H]1CC#N` [Example 363, 2-[(2S)-4-[7-(8-chloro-1-naphthyl)-2-[[(2R)-4-methylmorpholin-2-yl]methoxy]-6,8-dihydro-5H-pyrido[3,4-d]pyrimidin-4-yl]-1-prop-2-enoyl-piperazin-2-yl]acetonitrile], in test [1], the IC50 lay in the range of 0.1 to 1000 nM. On KRas G12C, the POC result is listed as “C (“C”>50% POC)”.
